Measurements taken from PubChem BioAssay AID977622 (Broad Institute, 2014).
Inconclusive results are not listed. The source made the active and inactive calls.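 Rule for the calls: active = Green signal of the normal strain falls at least twice as much as red signal of the resistant mutant, with overall culture growth loss under a set limit; inconclusive = no clear call, values can overlap the other calls; inactive = the rest.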

Tested on: E. coli WT ribosome GFP fluorescence, mixed culture, 24 h
Assay: wild-type E. coli growth inhibition versus h38 humanized strain – h38 mutant RFP, wild-type GFP, cherry-pick, dose response (AID 977622)
[1] = E. coli mixed culture, 24 h, measured here: total growth OD600

Row | SMILES | AC50 [1] [µM] | AC50
1 | Nc1[nH]c(C(=O)c2ccccc2)c(-c2ccc(Cl)cc2)c1C(=O)NCCc1c[nH]c2ccccc12 | > 100 | 
2 | O=C1N[C@@H](Cc2ccccc2)COC(=O)[C@H](Cc2ccc(F)cc2)C/C=C\C[C@H]1CC(=O)N(CCO)Cc1ccccc1 |  | > 100 µM (inactive)
3 | Cc1cc(C)c(OCCNC(=O)c2ccccc2Sc2ccccc2C#N)c(C)c1 |  | > 100 µM (inactive)
4 | COc1cc2nc(Nc3ccc(F)cc3)nc(N)c2cc1OC |  | > 100 µM (inactive)
5 | O=C(C[C@@H]1CC[C@H]2[C@@H](COC[C@H](O)CN2C(=O)Nc2cc(Cl)cc(Cl)c2)O1)N1CCOCC1 |  | > 100 µM (inactive)
6 | COc1ccc(C(=O)CSc2nc3ccccc3n2CC(=O)c2ccccc2)cc1 |  | > 100 µM (inactive)
7 | Cc1cc(C)cc(NC(=O)c2cccc(NC(=O)C3C4CC5OC(=O)C3C5C4)c2)c1 (centres undefined) |  | > 100 µM (inactive)
8 | Cc1ccc(S(=O)(=O)Nc2ccccc2CNc2cccc(C)n2)cc1 | > 100 | 
9 | Cc1ccc(-n2cc(CNCCN3CCOC3=O)c(-c3ccc(F)cc3)n2)cc1 | > 100 | 
10 | CCN(CC)CCN(C(=O)c1ccc2c(c1)CCCC2)c1nc2ccc(F)cc2s1 | 46.3 | > 100 µM (inactive)
11 | Cc1cccc(NC(=O)c2c(C)nn(-c3ccccc3)c2Cl)c1 |  | > 100 µM (inactive)
12 | Cc1ccc(C)c(N(CC(=O)NC2CCCC2)C(=O)c2oc(C(C)(C)C)cc2C)c1 | > 100 | 
13 | Cc1nn(-c2ccc(N3CCCCC3)nn2)c(C)c1CCC(=O)Nc1ccc(F)cc1 |  | > 100 µM (inactive)
14 | Cc1nc(-c2ccc([N+](=O)[O-])cc2)c(-c2ccccc2)o1 | > 100 | > 100 µM (inactive)
15 | CC(C)N1CC2(CC(c3ccccc3C(F)(F)F)=NO2)CN1C(=O)c1ccco1 (centres undefined) | > 100 | > 100 µM (inactive)
16 | Cc1cccc(Oc2ccc(NC(=O)c3ccccc3C(=O)O)cc2)c1 | > 100 | 
17 | Nc1nn(-c2ccccc2)c2ccc([N+](=O)[O-])cc12 |  | > 100 µM (inactive)
18 | CC(=O)Nc1ccc2nc3ccccc3nc2c1 | > 100 | > 100 µM (inactive)
19 | CCc1ccc(CN2CCCC(CNS(=O)(=O)c3ccc(OC)cc3)C2)cc1 (centres undefined) | > 100 | 
20 | Cc1cccc(CSCC(=O)N2CCN(S(=O)(=O)c3ccccc3C#N)CC2)c1 |  | > 100 µM (inactive)
21 | FC(F)(F)c1ccc(Cl)c(-n2c(Cc3cccs3)n[nH]c2=S)c1 |  | > 100 µM (inactive)
22 | O=C1c2ccccc2C(=O)N1CCc1c[nH]c2ccccc12 | > 100 | > 100 µM (inactive)

Row | SMILES | AC50 [1] [µM] | AC50
23 | O=C1NC(CCc2ccccc2)C(=O)N1Cc1cccc2ccccc12 (centres undefined) | 51.5 | > 100 µM (inactive)
24 | COc1ccc(NC(=O)CN(c2ccccc2OC)S(=O)(=O)c2cccs2)cc1Cl | > 100 | 
25 | O=C(Nc1ccc(C(=O)Nc2ccccc2Cl)cc1)c1cccnc1 | > 100 | 
26 | CCC(=O)Nc1nc2ccc(NC(=O)c3cc(OC)c(OC)c(OC)c3)cc2s1 |  | > 100 µM (inactive)
27 | O=S(=O)(c1ccccc1)N1C[C@H]2[C@@H](c3ccccc31)[C@@H](CO)N2Cc1ccccc1 |  | > 100 µM (inactive)
28 | CC(OC(=O)CCc1nc2ccccc2c(=O)[nH]1)C(=O)c1ccc(Br)cc1 (centres undefined) |  | > 100 µM (inactive)
29 | COc1ccc(NC(=O)Nc2cccc3c2O[C@H](CN(C)S(=O)(=O)c2ccc(Cl)cc2)[C@H](C)CN([C@H](C)CO)C3=O)cc1 | 44.2 | > 100 µM (inactive)
30 | CCc1nnc(NS(=O)(=O)c2ccc(NC(=O)c3cccc(Cl)c3)cc2)s1 |  | > 100 µM (inactive)
31 | CSc1c(-c2ccccn2)c(N)nn1C(=O)C1CC1 |  | > 100 µM (inactive)
32 | NC(=O)c1ccsc1NC(=O)COC(=O)Cc1ccc(F)cc1 | > 100 | 
33 | CN1c2ccc(C#Cc3cccnc3)cc2[C@@H]2[C@@H](CCN2C(=O)c2cccc(F)c2)[C@H]1CO |  | > 100 µM (inactive)
34 | CCc1ccc2[nH]c(C(=O)Nc3ccc4c(c3)OCO4)cc2c1 |  | > 100 µM (inactive)
35 | CCNc1nc(N)c(C(=O)C23CC4CC(CC(C4)C2)C3)s1 | > 100 | 
36 | CC(=O)Nc1cccc2c1Cc1cc([N+](=O)[O-])ccc1-2 |  | > 100 µM (inactive)
37 | Cc1cc(NC(=O)c2cccc(Oc3ccccc3)c2)n[nH]1 | 40.6 | > 100 µM (inactive)
38 | COc1cc(C(N)=O)cc(Br)c1OCc1ccccc1 |  | > 100 µM (inactive)
39 | COC(=O)c1c(C)oc(C)c1S(=O)(=O)NC(c1ccccc1)c1ccccc1 | 35.7 | > 100 µM (inactive)
40 | CC(=O)Oc1c(Cl)cc(N(C(C)=O)S(=O)(=O)c2ccccc2)c2ccccc12 | 47.2 | > 100 µM (inactive)
41 | CC(CCC(=O)O)C1CC[C@@]2(C)C3C(=O)CC4C(C)(C)C(O)CC[C@]4(C)C3C(=O)C[C@]12C (some centres undefined) | > 100 | > 100 µM (inactive)
42 | C[C@H]1CN([C@@H](C)CO)C(=O)CCCn2nncc2CO[C@@H]1CN(C)Cc1ccccc1C(F)(F)F | > 100 | 
43 | COc1ccc2oc(C(=O)NCc3ccco3)c(C)c2c1 |  | > 100 µM (inactive)
44 | NS(=O)(=O)c1cccc(NC(=O)COc2ncnc3c2cnn3-c2ccccc2)c1 |  | > 100 µM (inactive)

Row | SMILES | AC50 [1] [µM] | AC50
45 | CN(c1ccccc1)S(=O)(=O)c1cccc(NC(=O)CCN2C(=O)C3CCCCC3C2=O)c1 (centres undefined) | > 100 | > 100 µM (inactive)
46 | O=C(CSCc1c(Cl)cccc1Cl)Nc1cccnc1 | > 100 | > 100 µM (inactive)
47 | O=[N+]([O-])c1ccccc1CN1CCN(S(=O)(=O)c2ccccc2)CC1 |  | > 100 µM (inactive)
48 | Cc1ccc(-c2cc(-c3ccc(C)cc3)[n+](-c3ccc(C(=O)[O-])cc3)c(-c3ccc(C)cc3)c2)cc1 |  | > 100 µM (inactive)
49 | CN1C(=O)c2cc(NC(=O)c3cccc(F)c3)ccc2OC[C@H]2O[C@@H](CC(=O)N3CCc4ccccc4C3)CC[C@@H]21 |  | > 100 µM (inactive)
50 | CC(=O)OC1N=C(c2ccccc2Cl)c2cc(Br)ccc2NC1=O (centres undefined) | > 100 | 
51 | Cc1ccc(S(=O)(=O)NC(C)C(=O)NCc2ccc(Cl)cc2)cc1 (centres undefined) | > 100 | 
52 | COc1ccc([C@H]2C[C@H](O)C[C@@H](CCn3cc(-c4ccccc4)nn3)O2)cc1 | > 100 | 
53 | COC(=O)c1ccc(CCc2cc(O)c(Br)cc2O)cc1 | 46.5 | 
54 | Cc1cc2nc(SCC(=O)O)nc(C)c2cc1C | > 100 | 
55 | O=C(CCc1nc2ccccc2s1)OCC(=O)c1ccc[nH]1 |  | > 100 µM (inactive)
56 | O=S1(=O)N[C@H](Cc2ccccc2)COc2cc(N3CCSCC3)ccc21 | > 100 | 
57 | O=C(NCc1ccccc1)c1ccc(-c2ccccc2F)o1 | 28.8 | > 100 µM (inactive)
58 | Cc1ccc(NC(=O)c2ccc([N+](=O)[O-])o2)c(C)c1 |  | > 100 µM (inactive)
59 | COc1cccc(S(=O)(=O)N2CCCCN3[C@H](C2)[C@H](c2ccc(C#CC(C)C)cc2)[C@@H]3CO)c1 |  | > 100 µM (inactive)
60 | CCN(CC)S(=O)(=O)c1cccc(NC(=O)CNc2cccc(S(=O)(=O)N3CCCC3)c2)c1 |  | > 100 µM (inactive)
61 | COc1ccc(-c2ccccc2)cc1NC(=O)c1ccncc1 |  | > 100 µM (inactive)
62 | C[C@]12C(=O)N(c3ccc(F)cc3)C(=O)N1[C@@H]1c3ccccc3OC[C@@H]1[C@H]2c1ccccc1 | > 100 | 
63 | COc1ccc(NC(=O)Nc2cccc3c2O[C@@H](CN(C)S(=O)(=O)c2ccc(Cl)cc2)[C@@H](C)CN([C@@H](C)CO)C3=O)cc1 | 47.3 | > 100 µM (inactive)
64 | Cc1cc(C(N)=O)nn1-c1c(Cl)cc(Cl)cc1Cl | > 100 | 
